Where two headings read alike, the source gives them in different places.
How the values were obtained:
[1] = Ketone blood concentration after ingestion of 1,3-butanediol (FIG. 5, FIG. 6); type: in vivo, human
Description: FIG. 5 depicts an exemplary ketone blood concentration after ingestion of racemic 1,3-butanediol.
FIG. 6 depicts a ketone blood concentration after one person ingested (D)-1,3-butanediol, compared to the results of two people ingesting racemic 1,3-butanediol.
It should also be noted that only the D enantiomer is active in the body as a source of extracellular fuel that is then transported into the cells. Ketone blood level meters currently on the market only measure the blood level of the D enantiomer. Products containing racemic salts require two to three times the amount of sodium, calcium and potassium for an equal amount of (D)-β-hydroxybutyrate. A reason the potential levels of (D)-β-hydroxybutyrate in the blood is over double compared with an equal amount of the racemic solutions is because the body has to waste energy and uses up some of the (D)-β-hydroxybutyrate to burn off the unnatural (L)-β-hydroxybutyrate.
FIG. 5 depicts exemplary results from ingestion of 33 ml racemic 1,3-butanediol. […] For example, as shown, 33 ml of the non-racemic (D) form provided an increase in ketones of approximately 3.2 mmol/L whereas the racemic form provided approximately 0.9-1.0 mmol/L increases over pre consumption ketone levels.

[2] = tested on: pyruvate dehydrogenase impairment; experiment: Relief of fatigue and cognitive impairment in persons suffering with ALS; type: in vivo, human
Description: Persons suffering with ALS display chronic fatigue and chronic cognitive impairment. The mechanism of impairment has been traced to an impairment with pyruvate dehydrogenase in the mitochondria. Cells of the central nervous system, the heart and skeletal muscles, due to the impairment, lack the critical energy or ATP to function normally. (D)-β-hydroxybutyrate circumvents the pyruvate dehydrogenase impairment and provides for far higher energy and ATP creation in those cells. […] The dosing regimen should be between 5-60 grams 1-3 times per day with the preferred amount to be between 20-40 grams 3 times per day.

[3] = cited from earlier work

SMILES: CC(O)CCO (centres unmarked) [(D)-1,3-butanediol]
- amount of ketones (mmol) in the blood relative to racemic 1,3-butanediol ([1]; 33 ml each, over a 120 minute period): over double
- increase in ketones over pre consumption ketone levels ([1]; ingestion of 33 ml): approximately 3.2 mmol/L

SMILES: C[C@@H](O)CC(=O)O [(D)-β-hydroxybutyrate]
- time to significant reduction of fatigue and cognitive impairment after ingestion [2]: ≤ 15 min

SMILES: CC(O)CC(=O)[O-].[Na+] (racemic) [racemic sodium β-hydroxybutyrate, sodium β-hydroxybutyrate]
- blood ketones reachable ([3]; consumed at about 100-200% of the RDA for sodium): approximately 0.5 mmol/L

SMILES: CC(O)CC(=O)[O-].[K+] (racemic) [racemic potassium β-hydroxybutyrate, potassium β-hydroxybutyrate]
- blood ketones reachable ([3]; consumed at about 100% of potassium's RDA): approximately 0.5 mmol/L

From patent publication US12098411B2, “Exogenous ketone blend compositions for delivery of ketone bodies” (KetoneAid, Inc., priority 2016, dated 2024)
